{"source": "patent US20240125801A1", "about": "“MARKER FOR DIAGNOSIS OF NONALCOHOLIC FATTY LIVER DISEASE” (BREXOGEN INC., priority 2021, published 2024)", "system": "mice model of NASH induced by MC-deficient diet", "experiment": "MCD diet-induced NASH mice model", "assay_type": "in vivo, C57BL/6 mice", "settings": "BxC-V37e 400 μg/head i.v. or dulaglutide 2 nmol/kg s.c., 4 weeks, FIG. 4", "protocol": "Six-week-old C57BL/6 male wild-type mice were obtained from Koatech Co., Ltd. and fed either chow diet (n=6) or a methionine/choline-deficient (MCD) diet (n=15) for […]. Animal care and procedures were approved in the rodent animal facility area of Knotus Co., Ltd. (Korea; Approval Number: 19-KE-265). After the MCD diet was fed for 18 weeks, 2 nmol/kg dulaglutide (GLP-1 receptor agonist) was subcutaneously injected into mice every other day for 4 weeks, and 400 μg/head BxC-e and BxC-V37e were intravenously injected once a day, three times a week, for 4 weeks. At the end of the experiments, the mice were anesthetized, and their serum and liver tissues were collected. […]\nSerum samples were collected 4 weeks after the initiation of BxC-V37e injection, and the following parameters were measured using a blood biochemical analyzer (7180, Hitachi, Japan): ALT (Alanine transaminase), AST (Aspartate transaminase), TG (Triglyceride), glucose, TC (total cholesterol), HDL_C (high-density lipoprotein cholesterol), LDL_C (low-density lipoprotein cholesterol), LDH (lactate dehydrogenase), and GGT (gamma-glutamyltransferase).\nLiver tissues were fixed in 10% paraformaldehyde and subjected to general tissue treatment, such as cutting, dehydration, and paraffin embedding. […] Both steatosis and hypertrophy were evaluated at magnifications of 40× to 100×. […]", "data": [{"substance": "dulaglutide", "values": [{"measurement": "entire liver morphology (colour)", "result": "No difference"}]}]}
